Reference: patent US9249125B2, “Pyrazole derivatives as p38 MAP inhibitors” (RESPIVERT LIMITED, priority 2012, dated 2016)

Legend:
HRV16 = HRV16 induced CPE in MRC5 cells; type: cell-based, human rhinovirus
Procedure: The supernatants are aspirated, and then fresh media added followed by incubation for 4 days. Where appropriate, cells are pre-incubated with compound or DMSO for 2 hr, and the compounds and DMSO added again after washout of the virus.
Supernatants are aspirated and incubated with methylene blue solution (100 μL, 2% formaldehyde, 10% methanol and 0.175% Methylene Blue) for 2 hr at RT. […] The percentage inhibition for each well is calculated. The IC50 value is calculated from the concentration-response curve generated by the serial dilutions of the test compounds.

d-U937 cells = assay: Cell viability: MTT assay; type: cell-based, human; conditions: 1 μg/mL
Outline: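 Differentiated U937 cells were exposed to compound at 1 or 10 μg/mL either 4 h in 5% FCS RPMI1640 or 24 h in 10% FCS RPMI1640, then given MTT for 1 h, DMSO-solubilised and read at 550 nm. Percent viability loss versus 0.5% DMSO vehicle; apparent gains appear negative.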

[1] = test system: LPS-induced airways neutrophilia in mice; assay: LPS-induced neutrophil accumulation in mice; type: in vivo; conditions: Test Substance at 0.2 mg/mL, intra tracheal, dosed 8 hr pre-LPS challenge
Procedure: Non-fasted Balb/c mice are dosed by the intra tracheal route with either vehicle, or the test substance at the indicated times (within the range 2-8 hr) before stimulation of the inflammatory response by application of an LPS challenge. At T=0, mice are placed into an exposure chamber and exposed to LPS (7.0 mL, 0.5 mg/mL solution in PBS) for 30 min). After a further 8 hr the animals are anesthetized, their tracheas cannulated and BALF extracted by infusing and then withdrawing from their lungs 1.0 mL of PBS via the tracheal catheter. Total and differential white cell counts in the BALF samples are measured using a Neubaur haemocytometer. Cytospin smears of the BALF samples are prepared by centrifugation at 200 rpm for 5 min at RT and stained using a DiffQuik stain system (Dade Behring). Cells are counted using oil immersion microscopy. Data for neutrophil numbers in BAL are shown as mean±S.E.M. (standard error of the mean). The percentage inhibition of neutrophil accumulation is calculated for each treatment relative to vehicle treatment.

RSV A2 = assay: RSV induced F-protein expression in primary bronchial epithelial cells; type: cell-based, respiratory syncytical virus; conditions: HBECs; screened at concentrations up to 0.04 μg/mL
Procedure: Normal human bronchial epithelial cells (NHBEC) grown in 96 well plates are infected with RSV A2 (Strain A2, HPA, Salisbury, UK) at an MOI of 0.001 in the LHC8 Media:RPMI-1640 (50:50) containing 15 mM magnesium chloride and incubated for 1 hr at 37° C. for adsorption. The cells are then washed with PBS (3×200 μL), fresh media (200 μL) is added and incubation continued for 4 days. Where appropriate, cells are pre-incubated with the compound or DMSO for 2 hr, and then added again after washout of the virus.
The cells are fixed with 4% formaldehyde in PBS solution (50 μL) for 20 min, washed with WB (3×200 μL), (washing buffer, PBS including 0.5% BSA and 0.05% Tween-20) and incubated with blocking solution (5% condensed milk in PBS) for 1 hr. Cells are then washed with WB (3×200 μL) and incubated for 1 hr at RT with anti-RSV (2F7) F-fusion protein antibody (40 μL) (mouse monoclonal, lot 798760, Cat. No. ab43812, Abcam) in 5% BSA in PBS-tween. After washing, cells are incubated with an HRP-conjugated secondary antibody solution (50 μL) in 5% BSA in PBS-Tween (lot 00053170, Cat. No. P0447, Dako) and then TMB substrate (50 μL) (substrate reagent pack, lot 269472, Cat. No. DY999, R&D Systems, Inc.) was added. This reaction is stopped by the addition of 2N H2SO4 (50 μL) and the resultant signal is determined colorimetrically (OD: 450 nm with a reference wavelength of 655 nm) in a microplate reader (Varioskan® Flash, ThermoFisher Scientific).
Cells are then washed and a 2.5% crystal violet solution (50 μL) (lot 8656, Cat. No. PL7000, Pro-Lab Diagnostics) is applied for 30 min. After washing with WB, 1% SDS in distilled water (100 μL) is added to each well, and plates are shaken lightly on the shaker for 1 hr prior to reading the absorbance at 595 nm. The measured OD450-655 readings are corrected to the cell number by dividing the OD450-655 by the OD595 readings. The percentage inhibition for each well is calculated and the IC50 value is calculated from the concentration-response curve generated from the serial dilutions of compound.

| Structure (SMILES) | IC50 (HRV16; Human rhinovirus sp., HRV16, MRC5, read-out: HRV induced CPE in MRC5 Cells IC50) [nM] | MTT Assay Cell viability at time point in d-U937 cells 4 h (d-U937 cells) | MTT Assay Cell viability at time point in d-U937 cells 24 h (d-U937 cells) | % Inhibition of neutrophil accumulation in BAL [1] [%] | Neutrophil numbers in BAL (+/−SEM) [1] | RSV induced F-protein in HBECs % Inhibition Observed (RSV A2) [%] | HRV induced CPE in MRC5 Cells % Inhibition Observed (HRV16; MRC5 cells, screened at concentrations up to 0.32 ng/mL) [%] |
| --- | --- | --- | --- | --- | --- | --- | --- |
| Cc1cc(Nc2nccc(Oc3ccc(NC(=O)Nc4cc(C(C)(C)C)nn4-c4cccc(OCCN5CCOCC5)c4)c4ccccc34)n2)cc2cn[nH]c12 [Example 56, 1-(3-(tert-butyl)-1-(3-(2-morpholinoethoxy)phenyl)-1H-pyrazol-5-yl)-3-(4-((2-((7-methyl-1H-indazol-5-yl)amino)pyrimidin-4-yl)oxy)naphthalen-1-yl)urea] | 6.7 | −ve (−ve and +ve indicate that the value is below and above respectively, the no significant effect threshold, defined as 30% inhibition at 1 μg/mL at the time point indicated.) | +ve (−ve and +ve indicate that the value is below and above respectively, the no significant effect threshold, defined as 30% inhibition at 1 μg/mL at the time point indicated.) | 38 | 10.2 ± 1.9 ×10^5/mL |  |  |
| Cc1ccc(-n2nc(C(C)(C)C)cc2NC(=O)Nc2ccc(Oc3ccnc(Nc4ccc5[nH]cnc5c4)n3)c3ccccc23)cc1 [Example 30, 1-(4-((2-((1H-benzo[d]imidazol-5-yl)amino)pyrimidin-4-yl)oxy)naphthalen-1-yl)-3-(3-(tert-butyl)-1-(p-tolyl)-1H-pyrazol-5-yl)urea] |  | −ve (−ve and +ve indicate that the value is below and above respectively, the no significant effect threshold, defined as 30% inhibition at 1 μg/mL at the time point indicated.) | −ve (−ve and +ve indicate that the value is below and above respectively, the no significant effect threshold, defined as 30% inhibition at 1 μg/mL at the time point indicated.) |  |  | 57 |  |
| Cc1ccc(-n2nc(C(C)(C)C)cc2NC(=O)Nc2ccc(Oc3ccnc(Nc4ccc5ncn(C)c5c4)n3)c3ccccc23)cc1 [Example 31, 1-(3-(tert-butyl)-1-(p-tolyl)-1H-pyrazol-5-yl)-3-(4-((2-((1-methyl-1H-benzo[d]imidazol-6-yl)amino)pyrimidin-4-yl)oxy)naphthalen-1-yl)urea] |  | −ve (−ve and +ve indicate that the value is below and above respectively, the no significant effect threshold, defined as 30% inhibition at 1 μg/mL at the time point indicated.) | −ve (−ve and +ve indicate that the value is below and above respectively, the no significant effect threshold, defined as 30% inhibition at 1 μg/mL at the time point indicated.) |  |  | 73 |  |
| Cc1ccc(-n2nc(C(C)(C)C)cc2NC(=O)Nc2ccc(Oc3ccnc(Nc4ccc5c(ccn5C)c4)n3)c3ccccc23)cc1 [Example 18, 1-(3-(tert-butyl)-1-(p-tolyl)-1H-pyrazol-5-yl)-3-(4-((2-((1-methyl-1H-indol-5-yl)amino)pyrimidin-4-yl)oxy)naphthalen-1-yl)urea] |  | −ve (−ve and +ve indicate that the value is below and above respectively, the no significant effect threshold, defined as 30% inhibition at 1 μg/mL at the time point indicated.) | −ve (−ve and +ve indicate that the value is below and above respectively, the no significant effect threshold, defined as 30% inhibition at 1 μg/mL at the time point indicated.) |  |  | 56 |  |
| Cc1ccc(-n2nc(C(C)(C)C)cc2NC(=O)Nc2ccc(Oc3ccnc(Nc4ccc5cn[nH]c5c4)n3)c3ccccc23)cc1 [Example 24, 1-(4-((2-((1H-indazol-6-yl)amino)pyrimidin-4-yl)oxy)naphthalen-1-yl)-3-(3-(tert-butyl)-1-(p-tolyl)-1H-pyrazol-5-yl)urea] |  | −ve (−ve and +ve indicate that the value is below and above respectively, the no significant effect threshold, defined as 30% inhibition at 1 μg/mL at the time point indicated.) | −ve (−ve and +ve indicate that the value is below and above respectively, the no significant effect threshold, defined as 30% inhibition at 1 μg/mL at the time point indicated.) |  |  | 45 |  |
| Cc1ccc(-n2nc(C(C)(C)C)cc2NC(=O)Nc2ccc(Oc3ccnc(Nc4ccc5c(c4)ncn5C)n3)c3ccccc23)cc1 [Example 4, 1-(3-(tert-Butyl)-1-(p-tolyl)-1H-pyrazol-5-yl)-3-(4-((2-((1-methyl-1H-benzo[d]imidazol-5-yl)amino)pyrimidin-4-yl)oxy)naphthalen-1-yl)urea] |  | −ve (−ve and +ve indicate that the value is below and above respectively, the no significant effect threshold, defined as 30% inhibition at 1 μg/mL at the time point indicated.) | −ve (−ve and +ve indicate that the value is below and above respectively, the no significant effect threshold, defined as 30% inhibition at 1 μg/mL at the time point indicated.) |  |  | 96 |  |
| Cc1ccc(-n2nc(C(C)(C)C)cc2NC(=O)Nc2ccc(Oc3ccnc(Nc4cccc5cc[nH]c45)n3)c3ccccc23)cc1 [Example 17] |  | −ve (−ve and +ve indicate that the value is below and above respectively, the no significant effect threshold, defined as 30% inhibition at 1 μg/mL at the time point indicated.) | −ve (−ve and +ve indicate that the value is below and above respectively, the no significant effect threshold, defined as 30% inhibition at 1 μg/mL at the time point indicated.) |  |  | 65 |  |
| Cc1ccc(-n2nc(C(C)(C)C)cc2NC(=O)Nc2ccc(Oc3ccnc(Nc4ccc5ncsc5c4)n3)c3ccccc23)cc1 [Example 35, 1-(4-((2-(benzo[d]thiazol-6-ylamino)pyrimidin-4-yl)oxy)naphthalen-1-yl)-3-(3-(tert-butyl)-1-(p-tolyl)-1H-pyrazol-5-yl)urea] |  | −ve (−ve and +ve indicate that the value is below and above respectively, the no significant effect threshold, defined as 30% inhibition at 1 μg/mL at the time point indicated.) | −ve (−ve and +ve indicate that the value is below and above respectively, the no significant effect threshold, defined as 30% inhibition at 1 μg/mL at the time point indicated.) |  |  | 71 | 100 |
| Cc1ccc(-n2nc(C(C)(C)C)cc2NC(=O)Nc2ccc(Oc3ccnc(Nc4ccc5scnc5c4)n3)c3ccccc23)cc1 [Example 34, 1-(4-((2-(benzo[d]thiazol-5-ylamino)pyrimidin-4-yl)oxy)naphthalen-1-yl)-3-(3-(tert-butyl)-1-(p-tolyl)-1H-pyrazol-5-yl)urea] |  | −ve (−ve and +ve indicate that the value is below and above respectively, the no significant effect threshold, defined as 30% inhibition at 1 μg/mL at the time point indicated.) | −ve (−ve and +ve indicate that the value is below and above respectively, the no significant effect threshold, defined as 30% inhibition at 1 μg/mL at the time point indicated.) |  |  | 74 |  |
